Measured values: US8003658B2, “Quinazoline derivatives for inhibiting cancer cell growth and method for the preparation thereof” (Hanmi Holdings Co., Ltd., priority 2004, dated 2011)
Read-outs that look alike come from different tables or passages of the source.

Experiments:
SK-Br3 (ATCC: HTB-30) = assay: Test of cancer cell growth inhibition (SRB), SK-Br3; conditions: read-out: IC50 SK-Br-3
A431 (ATCC: CRL-1555) = assay: Test of cancer cell growth inhibition (SRB), A431; conditions: read-out: IC50 A431
SW-620 (ATCC: CCL-227) = assay: Test of cancer cell growth inhibition (SRB), SW-620; conditions: Homo sapiens, SW-620, 72 h, read-out: IC50 SW-620
[1] = target: EGFR (EGFR type 1 kinase) (Homo sapiens, UniProt P00533); assay: Inhibition of EGFR enzyme (fluorescence polarization kinase assay)
Description: 10 μl of EGFR (EGFR type 1 kinase) was added to each well of a 96-well microplate.

[2] = EGFR overexpressed A431, 72 hours, SRB
[3] = Erb-B2 overexpressed SK-Br3, 72 hours, SRB
[4] = read-out: IC50 EGFR, Poly (Glu, Tyr) 4:1 and ATP, 1 hour room temperature, FP readout

| Molecule | IC50 (SK-Br3 (ATCC: HTB-30); Homo sapiens, SK-BR-3, 72 h) | IC50 (A431 (ATCC: CRL-1555); Homo sapiens, A-431, 72 h) | IC50 (SW-620 (ATCC: CCL-227)) | IC50 [1] | IC50 (A431 (ATCC: CRL-1555); [2]) | IC50 (SK-Br3 (ATCC: HTB-30); [3]) | IC50 [1, 4] |
| --- | --- | --- | --- | --- | --- | --- | --- |
| C=CC(=O)NCCC(=O)Nc1ccc2ncnc(Nc3ccc(OCc4cccc(F)c4)c(Cl)c3)c2c1 [Example 22, N-(2-{4-[3-chloro-4-(3-fluoro-benzyloxy)-phenylamino]-quinazolin-6-ylcarbamoyl}-ethyl)-acrylamide] | 3 nM | 58 nM | > 10000 nM | 3 nM |  |  |  |
| C=CC(=O)NCCC(=O)Nc1ccc2ncnc(Nc3ccc(OCc4ccccn4)c(Cl)c3)c2c1 [Example 131, N-(2-{4-[3-chloro-4-(pyridin-2-ylmethoxy)-phenylamino]-quinazolin-6-ylcarbamoyl}-ethyl)-acrylamide] | 3 nM | 37 nM |  | 4 nM |  |  |  |
| C=CC(=O)NCCC(=O)N(C)c1ccc2ncnc(Nc3ccc(OCc4cccc(F)c4)c(Cl)c3)c2c1 [Example 139-5, N-[2-({4-[3-chloro-4-(3-fluoro-benzyloxy)-phenylamino]-quinazolin-6-yl}-methyl-carbamoyl)-ethyl]-acrylamide] | 47 nM | 69 nM |  | 5 nM |  |  |  |
| C=CC(=O)N(C)CCC(=O)Nc1ccc2ncnc(Nc3ccc(OCc4cccc(F)c4)c(Cl)c3)c2c1 [Example 142-2, N-(2-{4-[3-chloro-4-(3-fluoro-benzyloxy)-phenylamino]-quinazolin-6-ylcarbamoyl}-ethyl)-N-methyl-acrylamide] | 4 nM | 19 nM |  | 2 nM |  |  |  |
| C=CC(=O)N(C)CCC(=O)Nc1ccc2ncnc(Nc3ccc(OCc4ccccn4)c(Cl)c3)c2c1 [Example 143, N-(2-{4-[3-chloro-4-(pyridin-2-ylmethoxy)-phenylamino]-quinazolin-6-ylcarbamoyl}-ethyl)-N-methyl-acrylamide] | 2 nM | 10 nM |  | 1 nM |  |  |  |
| C=CC(=O)N1CCC[C@H]1C(=O)Nc1ccc2ncnc(Nc3ccc(OCc4ccccn4)c(Cl)c3)c2c1 [Example 145, (2S)-1-acryloyl-pyrrolidine-2-carboxylic acid {4-[3-chloro-4-(pyridin-2-ylmethoxy)-phenylamino]-quinazolin-6-yl}-amide] | 25 nM |  |  | 4 nM | 32 nM |  |  |
| CC#CC(=O)N1CCC[C@H]1C(=O)Nc1cc2c(Nc3ccc(OCc4ccccn4)c(Cl)c3)ncnc2cc1OC [Example 146, (2S)-1-(1-oxo-butyn-2-yl)-pyrrolidine-2-carboxylic acid {4-[3-chloro-4-(pyridin-2-ylmethoxy)-phenylamino]-7-methoxy-quinazolin-6-yl}-amide] |  |  |  |  | 32 nM | 40 nM | 4 nM |
| C=CC(=O)N1CCC[C@H]1C(=O)Nc1ccc2ncnc(Nc3ccc(OCc4cccc(C)n4)c(Cl)c3)c2c1 [Example 147, (2S)-1-acryloyl-pyrrolidine-2-carboxylic acid {4-[3-chloro-4-(6-methyl-pyridin-2-ylmethoxy)-phenylamino]-quinazolin-6-yl}-amide] | 19 nM | 21 nM |  | 2 nM |  |  |  |
| C=CC(=O)N1CCC[C@H]1C(=O)Nc1cc2c(Nc3ccc(OCc4ccccn4)c(Cl)c3)ncnc2cc1OC [Example 166, (2S)-1-acryloyl-pyrrolidine-2-carboxylic acid {4-[3-chloro-4-(pyridin-2-ylmethoxy)-phenylamino]-7-methoxy-quinazolin-6-yl}-amide] |  |  |  | 3 nM | 27 nM | 3 nM |  |
| C=CC(=O)NCCC(=O)Nc1cc2c(Nc3ccc(OCc4ccccn4)c(Cl)c3)ncnc2cc1OC [Example 167, N-(2-{4-[3-chloro-4-(pyridin-2-ylmethoxy)-phenylamino]-7-methoxy-quinazolin-6-ylcarbamoyl}-ethyl)-acrylamide] | 4 nM | 17 nM |  | 2 nM |  |  |  |
| C=CC(=O)NCCC(=O)Nc1cc2c(Nc3ccc(OCc4ccccn4)c(C)c3)ncnc2cc1F [Example 178, N-(2-{7-fluoro-4-[3-methyl-4-(pyridin-2-ylmethoxy)-phenylamino]-quinazolin-6-ylcarbamoyl}-ethyl)-acrylamide] | 3 nM | 50 nM |  | 4 nM |  |  |  |
| C=CC(=O)N[C@H](C)C(=O)Nc1cc2c(Nc3ccc(OCc4ccccn4)c(Cl)c3)ncnc2cc1OC [Example 189, (1R)—N-(1-{4-[3-chloro-4-(pyridin-2-ylmethoxy)-phenylamino]-7-methoxy-quinazolin-6-ylcarbamoyl}-ethyl)-acrylamide] | 2 nM | 9 nM |  | 1 nM |  |  |  |
| C=CC(=O)N[C@@H](C)C(=O)Nc1cc2c(Nc3ccc(OCc4ccccn4)c(Cl)c3)ncnc2cc1OC [Example 190, (1S)—N-(1-{4-[3-chloro-4-(pyridin-2-ylmethoxy)-phenylamino]-7-methoxy-quinazolin-6-ylcarbamoyl}-ethyl)-acrylamide] | 6 nM | 13 nM |  | 2 nM |  |  |  |
| C=CC(=O)N[C@@H](CC)C(=O)Nc1cc2c(Nc3ccc(OCc4ccccn4)c(Cl)c3)ncnc2cc1OC [Example 205, (2S)-2-acryloylamino-N-{4-[3-chloro-4-(pyridin-2-ylmethoxy)-phenylamino]-7-methoxy-quinazolin-6-yl}-butyramide] | 19 nM | 17 nM |  | 2 nM |  |  |  |
| C=CC(=O)N[C@H](C)C(=O)Nc1cc2c(Nc3ccc(OCc4ccccn4)c(Cl)c3)ncnc2cc1OCCOC [Example 208, (1R)—N-(1-{4-[3-chloro-4-(pyridin-2-ylmethoxy)-phenylamino]-7-(2-methoxy-ethoxy)-quinazolin-6-ylcarbamoyl}-ethyl)-acrylamide] | 3 nM | 11 nM |  | 2 nM |  |  |  |
| C=CC(=O)NCC(=O)Nc1cc2c(Nc3ccc(OCc4cccc(F)c4)c(Cl)c3)ncnc2cc1OC [Example 211, N-({4-[3-chloro-4-(3-fluoro-benzyloxy)-phenylamino]-7-methoxy-quinazolin-6-ylcarbamoyl}-methyl)-acrylamide] | 6 nM | 16 nM |  | 2 nM |  |  |  |
| C=CC(=O)NCC(=O)Nc1cc2c(Nc3ccc(OCc4cccc(F)c4)c(Cl)c3)ncnc2cc1OCCOC [Example 217, N-({4-[3-chloro-4-(3-fluoro-benzyloxy)-phenylamino]-7-(2-methoxyethoxy)-quinazolin-6-ylcarbamoyl}-methyl)-acrylamide] | 3 nM | 14 nM |  | 2 nM |  |  |  |
| C=CC(=O)NCC(=O)Nc1cc2c(Nc3ccc(OCc4ccccn4)c(Cl)c3)ncnc2cc1OCCOC [Example 218, N-({4-[3-chloro-4-(pyridin-2-ylmethoxy)-phenylamino]-7-(2-methoxyethoxy)-quinazolin-6-ylcarbamoyl}-methyl)-acrylamide] | 4 nM | 16 nM |  | 2 nM |  |  |  |
| C=CC(=O)N[C@@H](C)C(=O)Nc1cc2c(Nc3ccc(OCc4ccccn4)c(Cl)c3)ncnc2cc1OCCCN1CCOCC1 [Example 219, (1S)—N-(1-{4-[3-chloro-4-(pyridin-2-ylmethoxy)-phenylamino]-7-(3-morpholin-4-yl-propoxy)-quinazolin-6-ylcarbamoyl}-ethyl)-acrylamide] | 7 nM | 17 nM |  | 2 nM |  |  |  |
| (1S)—N-(1-{4-[3-chloro-4-(pyridin-2-ylmethoxy)-phenylamino]-7-methoxy-quinazolin-6-ylcarbamoyl}-ethyl)-acrylamide [Example 216] |  |  |  |  | 13 nM | 8 nM | 2 nM |
